Reference: PubChem BioAssay (NCI)
“And” between values parts separate entries of the source, which are not always exact repeats. Identical values can stand only once.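 All cell lines were grown in 96-well plates and treated with compound for 48 hours. Here, GI50 denotes the concentration required for 50% inhibition of growth. TGI is the concentration that stops growth completely.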

How the values were obtained:
Experiment in all cases: NCI-60 cell line screen, 48 h
NCI-H226 lung = test system: NCI-H226 lung
IGROV1 ovarian = test system: IGROV1 ovarian
MCF7 breast = test system: MCF7 breast
SNB-19 CNS = test system: SNB-19 CNS
OVCAR-3 ovarian = test system: OVCAR-3 ovarian
TK-10 renal = test system: TK-10 renal
SF-268 CNS = test system: SF-268 CNS
SK-OV-3 ovarian = test system: SK-OV-3 ovarian
MDA-MB-435 = test system: MDA-MB-435
DU-145 prostate = test system: DU-145 prostate

SMILES	GI50 (NCI-H226 lung)	TGI (NCI-H226 lung)	GI50 (IGROV1 ovarian)	TGI (IGROV1 ovarian)	GI50 (MCF7 breast)	TGI (MCF7 breast)	GI50 (SNB-19 CNS)	TGI (SNB-19 CNS)	GI50 (OVCAR-3 ovarian)	TGI (OVCAR-3 ovarian)	GI50 (TK-10 renal)	TGI (TK-10 renal)	GI50 (SF-268 CNS)	TGI (SF-268 CNS)	GI50 (SK-OV-3 ovarian)	TGI (SK-OV-3 ovarian)	GI50 (MDA-MB-435)	TGI (MDA-MB-435)	GI50 (DU-145 prostate)	TGI (DU-145 prostate)
CCCCCCCCCCCCOC1C(C(COC2OC(C(O)CO)C3OC(C)(C)OC23)OC(=O)Nc2ccc([N+](=O)[O-])cc2)OC2OC(C)(C)OC21 (stereo unspecified)	2.98 µM	11.2 µM	2.34 µM	5.73 µM	2.69 µM	8.6 µM	9.43 µM	21.8 µM	1.65 µM	3.14 µM	2.68 µM	7.29 µM	7.34 µM	22.1 µM	15.9 µM	30.8 µM	1.84 µM	3.68 µM	2.52 µM	7.17 µM
Nc1cc2[nH]c(=O)c3cc(Cl)ccc3c2cc1Cl	–	28.1 µM	–	23.5 µM	–	13.8 µM	–	37.2 µM	–	29.4 µM	–	33.7 µM	–	45.4 µM	–	15.8 µM	–	52.1 µM	–	39.1 µM
O=C(NC(c1ccccc1)C(O)C(=O)OCc1ccc2c(c1)C(=O)c1ccccc1C2=O)c1ccccc1 (stereo unspecified)	–	18.7 µM	–	48.5 µM	–	> 100 µM	–	18.3 µM	–	34.6 µM	–	53.2 µM	–	70.1 µM	–	15.3 µM	–	> 100 µM	–	> 100 µM
Oc1ccc(-c2nc(-c3ccc4oc5ccc(-c6[nH]c(-c7ccc(O)cc7)nc6-c6ccccc6)cc5c4c3)c(-c3ccccc3)[nH]2)cc1	13.3 µM	> 100 µM	4.54 µM	96.6 µM	2.99 µM	73.9 µM	19.1 µM	83.5 µM	4.3 µM	15.2 µM	6.34 µM	19.2 µM	5.57 µM	65.3 µM	17 µM	42.4 µM	2.85 µM	> 100 µM	4.83 µM	20.6 µM
CCN(CC)CCC(CNc1c2ccc(Cl)cc2nc2ccc(OC)cc12)c1ccccc1 (stereo unspecified)	1.43 µM	4.99 µM	1.21 µM	5.11 µM	0.505 µM	1.88 µM	1.36 µM	4.2 µM	1.71 µM	4.7 µM	0.915 µM	2.8 µM	1.33 µM	3.8 µM	1.64 µM	3.5 µM	1.5 µM	3.09 µM	1.32 µM	6.09 µM
CCCCCCn1c(=N)n(CC(O)COc2cccc(C)c2)c2ccccc21 (stereo unspecified)	3.14 µM	12.5 µM	2.78 µM	10.2 µM	1.76 µM	3.55 µM	4.94 µM	20 µM	2.13 µM	4.98 µM	3.71 µM	12.8 µM	3.9 µM	13.9 µM	3.38 µM	9.32 µM	1.83 µM	3.56 µM	3.67 µM	12.1 µM
CC(C)(O)C1CC(=O)C(C)(C2C(O)CC3(C)C4CC=C5C(CCC(O)C5(C)C)C4(C)C(=O)CC23C)O1 (stereo unspecified)	–	> 100 µM	–	> 100 µM	–	> 100 µM	–	> 100 µM	–	> 100 µM	–	> 100 µM	–	> 100 µM	–	> 100 µM	–	> 100 µM	–	> 100 µM
N#Cc1ccccc1C#C/C=C\C#Cc1cnccn1	26.6 µM	> 83.1 µM	38.1 µM	> 100 µM	> 60 µM	> 100 µM	30.2 µM	> 89.4 µM	1.22 µM	18.3 µM	13 µM	63.6 µM	48.9 µM	> 100 µM	52.7 µM	> 100 µM	3.14 µM	–	25 µM	> 100 µM
COc1ccc(/C=C2\CC(C)CC3C2=NN(C(C)=O)C3c2ccc(OC)c(OC)c2)cc1OC (stereo unspecified)	18.8 µM	> 100 µM	20.2 µM	50.6 µM	14.4 µM	30.6 µM	17.7 µM	39.4 µM	18 µM	46 µM	65 µM	> 100 µM	14.6 µM	31.8 µM	31 µM	75.7 µM	18.6 µM	39.4 µM	19.7 µM	47.8 µM
C[CH2][Ge]1([CH2]C)[CH2]CC2(CCN(CCCN(C)C)C2)C[CH2]1	2.24 µM and 17.3 µM	4.92 µM and 32.1 µM	1.75 µM and 4.54 µM	3.42 µM and 10.8 µM	0.99 µM and 2.42 µM	2.69 µM and 4.05 µM	2.21 µM and 4.46 µM	5.57 µM and 9.89 µM	2.15 µM and 2.81 µM	4.99 µM and 6.87 µM	1.72 µM and 1.87 µM	3.18 µM and 3.38 µM	1.81 µM	3.96 µM	2.64 µM and 3.59 µM	6.11 µM and 9.62 µM	0.289 µM	0.843 µM	2.48 µM and 3.09 µM	6.64 µM and 8.84 µM
Cc1cccc(NC(=O)c2sc3nc4c(cc3c2N)CCC4)c1C	2.65 µM	36.8 µM	0.766 µM	53 µM	0.261 µM	13.6 µM	0.532 µM	29.1 µM	0.308 µM	1.47 µM	0.74 µM	26.5 µM	0.722 µM	26 µM	0.379 µM	18.4 µM	0.0519 µM	0.284 µM	0.407 µM	13.9 µM
C/C=C\C(C)=C/C(C)C(=O)CC(O)CC1CC(=O)NC(=O)C1 (stereo unspecified)	–	> 100 µM	–	> 100 µM	–	> 100 µM	–	> 90.6 µM	–	> 100 µM	–	> 100 µM	–	> 100 µM	–	> 100 µM	–	> 100 µM	–	> 100 µM
CCCC1C2=C(C(=O)OC2=O)C2C(CC)CC3=C(C(=O)OC3=O)C12 (stereo unspecified)	–	> 100 µM	–	> 100 µM	–	> 100 µM	–	> 100 µM	–	> 100 µM	–	> 100 µM	–	> 100 µM	–	> 100 µM	–	> 100 µM	–	> 100 µM
CC(=O)OC1C(OC/C2=C/C3[C@@H](C(C)C)CC=C(C)[C@@H]3CC(OC(=O)/C=C/c3cn(C)cn3)[C@]3(C)C=C[C@@]2(O)O3)OCC(O)C1O (stereo partly specified)	–	> 50 µM	0.0737 µM	> 50 µM	0.0146 µM	> 50 µM	0.0364 µM	> 50 µM	0.0105 µM	0.0268 µM	0.465 µM	> 50 µM	0.0336 µM	> 50 µM	0.0132 µM	–	0.00626 µM	0.0208 µM	0.0155 µM	0.0475 µM
Oc1c(Br)cc(Br)c2cccnc12	5.09 µM	30.2 µM	4.18 µM	51.4 µM	4.48 µM	> 100 µM	3.99 µM	> 100 µM	3.53 µM	15.2 µM	14.2 µM	> 100 µM	3.36 µM	> 100 µM	3.99 µM	21.1 µM	3.62 µM	> 100 µM	3.72 µM	40.3 µM
Cc1ccc(S(=O)(=O)NC(CCCCN)C(=O)CCl)cc1 (stereo unspecified)	79.9 µM	> 100 µM	> 100 µM	> 100 µM	57.9 µM	> 100 µM	47.8 µM	> 100 µM	33.2 µM	> 100 µM	90.5 µM	> 100 µM	67.5 µM	> 100 µM	> 100 µM	> 100 µM	22.2 µM	67.9 µM	81.2 µM	> 100 µM
Cn1c(N)c(N=Nc2ccc(S(N)(=O)=O)cc2)c(=O)n(C)c1=O	–	> 100 µM	–	> 100 µM	–	> 100 µM	–	> 100 µM	–	> 100 µM	–	> 100 µM	–	> 100 µM	–	> 100 µM	–	> 100 µM	–	> 100 µM
C=C1C(=O)O[C@H]2[C@H]1CC/C(Cn1cc(CNC(=O)c3cc4ccccc4[nH]3)nn1)=C\CC[C@@]1(C)O[C@@H]21	2.57 µM	6.15 µM	3.24 µM	10.6 µM	2.94 µM	15.4 µM	7.44 µM	20.4 µM	2.12 µM	5.63 µM	4.41 µM	15.2 µM	7.26 µM	22.5 µM	50.4 µM	> 100 µM	2.82 µM	9.7 µM	4.07 µM	15.1 µM
COc1cc(C2C3=C(COC3=O)N(CCO)c3cc4c(cc32)CCC4)cc(OC)c1OC (stereo unspecified)	0.417 µM	> 32.5 µM	0.0732 µM	0.232 µM	0.0986 µM	23.8 µM	0.0946 µM	6.38 µM	0.0595 µM	0.129 µM	1.56 µM	> 32.5 µM	0.0934 µM	–	0.0978 µM	0.366 µM	0.0279 µM	0.187 µM	0.0787 µM	0.214 µM
COc1ccc(C2CC(c3cccc(Nc4ccnc5cc(Cl)ccc45)c3)=NN2c2ccc(Cl)cc2)cc1 (stereo unspecified)	14.2 µM	94.8 µM	18.8 µM	> 100 µM	3.45 µM	44.3 µM	15.9 µM	> 100 µM	11 µM	> 100 µM	12.9 µM	> 100 µM	15.5 µM	> 100 µM	15 µM	99.3 µM	0.717 µM	49.6 µM	28.4 µM	> 100 µM
COc1cc2c(cc1Nc1nc(Nc3ccsc3C(N)=O)c3cc[nH]c3n1)N(C(=O)CN(C)C)CCC2	1.12 µM	7.18 µM	1.79 µM	8.36 µM	0.00343 µM	> 25 µM	2.58 µM	> 25 µM	0.618 µM	2.13 µM	1.46 µM	6.27 µM	1.15 µM	10.6 µM	1.18 µM	4.89 µM	0.0499 µM	0.489 µM	0.481 µM	1.64 µM
C#Cc1cccc(NC(=O)Nc2cccc(NC(=O)CCl)c2)c1	21.6 µM	75.2 µM	11.6 µM	26 µM	21.7 µM	> 82.5 µM	> 82.5 µM	> 82.5 µM	14.6 µM	36.5 µM	38 µM	> 82.5 µM	25.7 µM	> 82.5 µM	46.5 µM	> 82.5 µM	24.2 µM	> 82.5 µM	> 82.5 µM	> 82.5 µM
Cc1ccc(SCN2CCCCC2)cc1 (tested in a mixture with another compound)	–	36.7 µM	–	10.9 µM	–	59.4 µM	–	49.9 µM	–	30 µM	–	45.3 µM	–	20.6 µM	–	29.7 µM	–	25.6 µM	–	28.1 µM
CN(C)CCCn1c2c(c3ccc([N+](=O)[O-])cc3c1=O)C(=O)c1ccccc1-2	6.82 µM	24 µM	4.98 µM	> 100 µM	2.41 µM	> 100 µM	19.1 µM	> 100 µM	25.6 µM	70.5 µM	15.3 µM	73.7 µM	9.53 µM	> 100 µM	28.1 µM	> 100 µM	> 100 µM	> 100 µM	5.61 µM	29.8 µM
Cn1cc(C2=C(c3cn(CCCSC(=N)N)c4ccccc34)C(=O)NC2=O)c2ccccc21	1.49 µM	7.29 µM	3.03 µM	12.3 µM	0.799 µM	3 µM	1.4 µM	8.99 µM	2.4 µM	9.28 µM	3.88 µM	10.7 µM	1.76 µM	7.52 µM	5 µM	15.4 µM	1.81 µM	5.59 µM	4.78 µM	12.5 µM
Cn1c([N+](=O)[O-])cnc1/C=C1\Oc2ccc(Cl)cc2C1=O	1.64 µM	4.64 µM	1.22 µM	8.29 µM	0.485 µM	4.42 µM	1.77 µM	6.95 µM	0.307 µM	0.952 µM	1.04 µM	2.77 µM	0.339 µM	1.45 µM	2.05 µM	7.24 µM	0.354 µM	1.95 µM	0.402 µM	1.32 µM
CCCCc1ccc(C(N)=O)nc1	> 100 µM	> 100 µM	> 100 µM	> 100 µM	> 100 µM	> 100 µM	> 100 µM	> 100 µM	> 100 µM	> 100 µM	> 100 µM	> 100 µM	> 100 µM	> 100 µM	> 100 µM	> 100 µM	> 100 µM	> 100 µM	> 100 µM	> 100 µM
